Reference: publication PMC4447944 (The Journal of Biological Chemistry, 2015)

Legend:
[1] = biological target: T1, hTLK2 (Homo sapiens, UniProt Q86UE8); experiment: KINOMEscan; format: binding
T1 construct: purchased DiscoverX

[2] = biological target: T2, hMET(M1250T) (Homo sapiens, UniProt P08581, M1250T); experiment: KINOMEscan; format: binding
T2 construct: purchased DiscoverX

[3] = biological target: T3, hIRAK3 (Homo sapiens, UniProt Q9Y616); experiment: KINOMEscan; format: binding
T3 construct: purchased DiscoverX (KINOMEscan panel)
T3 sequence (Q9Y616 whole entry): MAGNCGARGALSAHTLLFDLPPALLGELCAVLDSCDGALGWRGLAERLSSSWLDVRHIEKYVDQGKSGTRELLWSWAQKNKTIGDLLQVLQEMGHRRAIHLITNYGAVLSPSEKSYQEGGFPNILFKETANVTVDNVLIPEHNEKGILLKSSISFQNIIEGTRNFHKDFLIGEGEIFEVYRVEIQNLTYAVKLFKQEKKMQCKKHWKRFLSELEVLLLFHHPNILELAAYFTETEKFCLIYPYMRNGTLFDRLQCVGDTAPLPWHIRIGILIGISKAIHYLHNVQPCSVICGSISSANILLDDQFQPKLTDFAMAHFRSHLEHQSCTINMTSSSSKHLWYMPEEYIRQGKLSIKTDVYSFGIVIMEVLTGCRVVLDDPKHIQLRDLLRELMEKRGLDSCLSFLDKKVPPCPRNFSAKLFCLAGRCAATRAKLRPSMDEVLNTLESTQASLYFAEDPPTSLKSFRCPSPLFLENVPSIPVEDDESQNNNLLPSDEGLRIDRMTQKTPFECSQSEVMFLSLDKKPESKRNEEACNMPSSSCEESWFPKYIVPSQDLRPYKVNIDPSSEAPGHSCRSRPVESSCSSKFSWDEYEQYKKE

[4] = biological target: T4, hASK2 (Homo sapiens, UniProt O95382); experiment: KINOMEscan; format: binding
T4 construct: purchased DiscoverX

[5] = biological target: hADRβ2 (Homo sapiens, UniProt P07550); experiment: cAMP Agonist (Eurofins-CEREP); settings: @ 10 μM
[6] = biological target: hD1 (Homo sapiens, UniProt P21728); experiment: cAMP Agonist (Eurofins-CEREP); settings: @ 10 μM
Sequence of hD1 (P21728 whole entry): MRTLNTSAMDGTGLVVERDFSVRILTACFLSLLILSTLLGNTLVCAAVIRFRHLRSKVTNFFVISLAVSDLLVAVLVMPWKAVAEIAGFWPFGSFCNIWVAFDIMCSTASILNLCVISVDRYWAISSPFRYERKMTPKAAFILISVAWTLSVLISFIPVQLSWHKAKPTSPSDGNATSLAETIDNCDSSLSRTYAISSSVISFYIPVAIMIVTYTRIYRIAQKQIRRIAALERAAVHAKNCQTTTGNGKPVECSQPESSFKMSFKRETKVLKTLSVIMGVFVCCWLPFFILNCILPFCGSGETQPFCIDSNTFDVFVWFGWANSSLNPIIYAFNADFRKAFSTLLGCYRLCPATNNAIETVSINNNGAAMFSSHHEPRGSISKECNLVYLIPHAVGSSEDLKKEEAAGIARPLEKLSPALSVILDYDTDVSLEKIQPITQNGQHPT

[7] = biological target: T5, hCSK (Homo sapiens, UniProt P41240); experiment: KINOMEscan; format: binding
T5 construct: purchased DiscoverX (KINOMEscan platform)
T5 sequence (P41240 whole entry): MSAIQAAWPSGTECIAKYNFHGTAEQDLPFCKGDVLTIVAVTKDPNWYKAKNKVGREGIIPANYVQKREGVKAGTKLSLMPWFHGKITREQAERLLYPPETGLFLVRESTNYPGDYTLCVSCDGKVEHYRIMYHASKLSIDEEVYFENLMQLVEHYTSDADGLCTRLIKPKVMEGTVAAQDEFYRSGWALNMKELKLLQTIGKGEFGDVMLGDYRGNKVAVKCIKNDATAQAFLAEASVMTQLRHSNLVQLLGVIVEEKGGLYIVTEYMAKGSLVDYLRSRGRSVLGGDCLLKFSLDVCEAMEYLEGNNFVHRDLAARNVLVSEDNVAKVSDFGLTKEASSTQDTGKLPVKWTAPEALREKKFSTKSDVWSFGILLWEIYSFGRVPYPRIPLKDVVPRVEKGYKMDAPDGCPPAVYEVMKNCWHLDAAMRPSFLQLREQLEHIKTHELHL

[8] = biological target: T6, hTAOK1 (Homo sapiens, UniProt Q7L7X3); experiment: KINOMEscan; format: binding
T6 construct: purchased DiscoverX

[9] = biological target: T7, hTYK2(JH2Dom.-pseudokinase) (Homo sapiens, UniProt P29597); experiment: KINOMEscan; format: binding
T7 construct: hTYK2(JH2Dom.-pseudokinase); purchased DiscoverX
T7 sequence (P29597 589-875 limits assumed): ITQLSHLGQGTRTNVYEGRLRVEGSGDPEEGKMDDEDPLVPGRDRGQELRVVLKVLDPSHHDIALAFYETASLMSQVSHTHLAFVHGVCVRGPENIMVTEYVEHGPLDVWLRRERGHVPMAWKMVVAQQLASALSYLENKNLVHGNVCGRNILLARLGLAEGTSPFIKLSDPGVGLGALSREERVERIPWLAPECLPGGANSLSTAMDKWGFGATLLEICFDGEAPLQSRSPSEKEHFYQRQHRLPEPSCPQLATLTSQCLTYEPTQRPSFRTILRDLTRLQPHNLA

[10] = biological target: T8, hMKK7 (Homo sapiens, UniProt O14733); experiment: KINOMEscan; format: binding
T8 construct: purchased DiscoverX

[11] = biological target: T9, hERβ (Homo sapiens, UniProt Q92731); experiment: Nuclear hormone receptor assay (Eurofins-CEREP); settings: read-out: Relative IC50
T9 construct: Eurofins-CEREP

[12] = biological target: T10, hPRP4 (Homo sapiens, UniProt Q13523); experiment: KINOMEscan; format: binding
T10 construct: purchased DiscoverX

[13] = biological target: T11, hSGK3 (Homo sapiens, UniProt Q96BR1); experiment: KINOMEscan; format: binding
T11 construct: purchased DiscoverX (KINOMEscan platform)

[14] = biological target: T12, hRET(V804M) (Homo sapiens, UniProt P07949, V804M); experiment: KINOMEscan; format: binding
T12 construct: purchased DiscoverX (KINOMEscan platform)
T12 sequence (P07949 29-1114 V804M): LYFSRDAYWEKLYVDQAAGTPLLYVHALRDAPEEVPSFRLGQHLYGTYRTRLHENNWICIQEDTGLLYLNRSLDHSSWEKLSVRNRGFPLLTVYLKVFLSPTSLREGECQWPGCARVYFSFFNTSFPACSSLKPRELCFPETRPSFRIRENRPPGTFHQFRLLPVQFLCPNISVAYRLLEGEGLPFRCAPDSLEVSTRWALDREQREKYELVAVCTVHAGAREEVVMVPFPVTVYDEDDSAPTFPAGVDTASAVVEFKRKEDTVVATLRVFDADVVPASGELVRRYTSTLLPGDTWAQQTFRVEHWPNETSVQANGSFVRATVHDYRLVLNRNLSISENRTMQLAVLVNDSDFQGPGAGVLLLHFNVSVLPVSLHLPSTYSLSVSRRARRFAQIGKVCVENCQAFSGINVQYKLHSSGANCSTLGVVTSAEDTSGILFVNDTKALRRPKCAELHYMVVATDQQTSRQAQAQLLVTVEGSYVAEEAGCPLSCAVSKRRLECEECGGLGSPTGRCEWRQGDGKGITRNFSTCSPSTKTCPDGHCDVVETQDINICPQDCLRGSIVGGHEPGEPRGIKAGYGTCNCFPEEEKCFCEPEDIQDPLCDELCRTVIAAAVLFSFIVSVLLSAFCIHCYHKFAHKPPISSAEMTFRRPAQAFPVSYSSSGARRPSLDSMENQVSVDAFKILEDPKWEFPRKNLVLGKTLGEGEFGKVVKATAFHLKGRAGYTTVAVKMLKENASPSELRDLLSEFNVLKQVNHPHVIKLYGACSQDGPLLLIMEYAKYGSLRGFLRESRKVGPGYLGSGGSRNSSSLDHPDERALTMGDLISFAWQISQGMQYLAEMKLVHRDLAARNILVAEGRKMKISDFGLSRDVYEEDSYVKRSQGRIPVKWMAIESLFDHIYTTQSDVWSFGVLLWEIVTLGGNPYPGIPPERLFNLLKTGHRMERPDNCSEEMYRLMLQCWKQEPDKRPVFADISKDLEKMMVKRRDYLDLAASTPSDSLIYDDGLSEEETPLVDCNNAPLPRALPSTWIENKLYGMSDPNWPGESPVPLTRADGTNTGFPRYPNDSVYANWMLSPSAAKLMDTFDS

[15] = biological target: T13, hERN1 (Homo sapiens, UniProt O75460); experiment: KINOMEscan; format: binding
T13 construct: purchased DiscoverX

[16] = test system: p53 Lys370 methylation; experiment: Western blot time course and subcellular fractionation, KYSE-150 cells stably expressing FLAG-SMYD2; format: cell-based, human
Procedure: 5 × 10^6 KYSE-150 cells or KYSE-150 cells stably overexpressing SMYD2 were harvested and separated into subcellular fractions using the Subcellular Protein Fractionation kit for cultured cells (Thermo Scientific) according to the manufacturer's instructions. Lysates were reduced, boiled, subjected to 4–20% SDS-PAGE, and transferred to nitrocellulose membranes. […] Each membrane was then incubated with ECL anti-rabbit or anti-mouse IgG HRP-linked whole antibody (GE Healthcare) followed by detection with SuperSignal West Femto Maximum Sensitivity Substrate (Thermo Scientific) on a ChemiDoc^TM XRS system (Bio-Rad). Primary tumor lysates in RIPA buffer were obtained from Crownbio Bioscience. Cancer cell lines were obtained from the German Collection of Microorganisms and Cell Cultures GmbH (DSMZ), the Korean Cell Line Bank, the Japanese Collection of Research Bio-Resources, or the American Type Culture Collection (ATCC). Tumor cells were lysed in buffer containing 50 mM Tris-HCl, pH 7.5, 500 mM NaCl, 1% Nonidet P-40, 0.25% sodium deoxycholate, 20 mM NaF, protease inhibitor mixture (Roche Applied Science), and phosphatase inhibitor mixtures I and II (Sigma). Tumor or cell lysates were boiled, subjected to 4–20% SDS-PAGE, and transferred to nitrocellulose membrane. Each membrane was blocked in Odyssey Blocking Buffer and incubated with custom-made mouse monoclonal anti-SMYD2 or mouse monoclonal anti-β-actin (Sigma) antibody followed by detection with IRDye680RD goat anti-mouse IgG on the Odyssey Imager.

[17] = biological target: T14, hRIPK2 (Homo sapiens, UniProt O43353); experiment: KINOMEscan; format: binding
T14 construct: purchased DiscoverX (KINOMEscan platform)

[18] = biological target: T15, hSNARK (Homo sapiens, UniProt Q9H093); experiment: KINOMEscan; format: binding
T15 construct: purchased DiscoverX (KINOMEscan platform)

[19] = biological target: T16, hRIOK3 (Homo sapiens, UniProt O14730); experiment: KINOMEscan; format: binding
T16 construct: purchased DiscoverX (KINOMEscan platform)

[20] = biological target: T17, hEGFR(L858R) (Homo sapiens, UniProt P00533, L858R); experiment: KINOMEscan; format: binding
T17 construct: purchased DiscoverX

[21] = biological target: T18, hLYN (Homo sapiens, UniProt P07948); experiment: KINOMEscan; format: binding
T18 construct: purchased DiscoverX (KINOMEscan platform)

[22] = biological target: T19, hADORA3 (Homo sapiens, UniProt P0DMS8); experiment: cAMP Agonist (Eurofins-CEREP); settings: @ 10 μM
T19 sequence (P0DMS8 1-318): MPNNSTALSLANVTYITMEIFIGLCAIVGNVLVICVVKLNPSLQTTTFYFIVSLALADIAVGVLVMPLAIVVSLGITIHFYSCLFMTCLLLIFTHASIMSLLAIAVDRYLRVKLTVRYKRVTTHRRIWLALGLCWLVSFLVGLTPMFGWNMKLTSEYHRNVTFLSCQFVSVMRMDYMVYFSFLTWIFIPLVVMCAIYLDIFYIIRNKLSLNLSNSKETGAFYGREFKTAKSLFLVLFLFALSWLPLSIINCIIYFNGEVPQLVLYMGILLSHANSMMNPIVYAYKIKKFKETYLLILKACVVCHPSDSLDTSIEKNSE

[23] = biological target: T20, hDAPK1 (Homo sapiens, UniProt P53355); experiment: KINOMEscan; format: binding
T20 construct: purchased DiscoverX (KINOMEscan platform)

[24] = biological target: T21, hLXRβ (Homo sapiens, UniProt P55055); experiment: Nuclear hormone receptor assay (Eurofins-CEREP); settings: read-out: Relative IC50
T21 construct: Eurofins-CEREP

[25] = biological target: T22, hINSRR (Homo sapiens, UniProt P14616); experiment: KINOMEscan; format: binding
T22 construct: purchased DiscoverX (KINOMEscan panel)

T2 sequence (P08581 25-1390 M1250T): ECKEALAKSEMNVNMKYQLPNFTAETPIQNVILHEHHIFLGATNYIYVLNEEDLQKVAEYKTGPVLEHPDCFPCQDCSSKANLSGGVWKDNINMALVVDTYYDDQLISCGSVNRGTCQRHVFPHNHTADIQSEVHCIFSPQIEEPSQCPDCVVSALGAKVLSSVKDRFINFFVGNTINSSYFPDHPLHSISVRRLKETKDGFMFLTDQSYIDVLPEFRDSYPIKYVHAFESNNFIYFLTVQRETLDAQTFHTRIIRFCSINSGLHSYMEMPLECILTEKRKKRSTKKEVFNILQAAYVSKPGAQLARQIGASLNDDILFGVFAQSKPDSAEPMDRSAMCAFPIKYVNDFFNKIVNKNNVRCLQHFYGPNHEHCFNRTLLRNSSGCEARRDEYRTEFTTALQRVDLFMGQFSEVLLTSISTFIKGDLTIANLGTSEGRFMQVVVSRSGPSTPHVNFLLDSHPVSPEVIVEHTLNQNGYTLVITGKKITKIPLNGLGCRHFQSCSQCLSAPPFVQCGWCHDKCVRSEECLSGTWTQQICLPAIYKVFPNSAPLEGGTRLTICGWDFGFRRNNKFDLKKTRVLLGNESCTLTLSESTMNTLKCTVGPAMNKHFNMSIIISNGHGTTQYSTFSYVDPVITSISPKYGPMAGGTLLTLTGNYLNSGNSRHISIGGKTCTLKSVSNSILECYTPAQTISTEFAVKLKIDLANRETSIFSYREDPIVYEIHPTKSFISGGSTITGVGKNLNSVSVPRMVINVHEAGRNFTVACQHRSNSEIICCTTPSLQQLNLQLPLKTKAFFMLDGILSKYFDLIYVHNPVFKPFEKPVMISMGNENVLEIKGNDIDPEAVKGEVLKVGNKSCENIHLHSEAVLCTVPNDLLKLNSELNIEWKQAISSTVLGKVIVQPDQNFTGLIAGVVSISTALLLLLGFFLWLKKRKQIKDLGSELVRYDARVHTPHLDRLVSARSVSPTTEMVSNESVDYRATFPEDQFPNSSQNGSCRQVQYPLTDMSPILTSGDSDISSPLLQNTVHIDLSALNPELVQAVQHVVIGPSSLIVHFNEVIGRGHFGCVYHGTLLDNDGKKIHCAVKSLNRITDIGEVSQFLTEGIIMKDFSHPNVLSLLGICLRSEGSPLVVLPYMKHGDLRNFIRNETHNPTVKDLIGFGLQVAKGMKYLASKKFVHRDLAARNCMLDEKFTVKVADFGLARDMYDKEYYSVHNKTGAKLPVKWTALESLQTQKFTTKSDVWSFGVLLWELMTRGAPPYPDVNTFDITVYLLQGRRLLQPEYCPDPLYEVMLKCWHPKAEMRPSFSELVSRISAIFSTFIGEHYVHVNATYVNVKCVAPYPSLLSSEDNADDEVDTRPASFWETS
T1 sequence (Q86UE8 whole entry): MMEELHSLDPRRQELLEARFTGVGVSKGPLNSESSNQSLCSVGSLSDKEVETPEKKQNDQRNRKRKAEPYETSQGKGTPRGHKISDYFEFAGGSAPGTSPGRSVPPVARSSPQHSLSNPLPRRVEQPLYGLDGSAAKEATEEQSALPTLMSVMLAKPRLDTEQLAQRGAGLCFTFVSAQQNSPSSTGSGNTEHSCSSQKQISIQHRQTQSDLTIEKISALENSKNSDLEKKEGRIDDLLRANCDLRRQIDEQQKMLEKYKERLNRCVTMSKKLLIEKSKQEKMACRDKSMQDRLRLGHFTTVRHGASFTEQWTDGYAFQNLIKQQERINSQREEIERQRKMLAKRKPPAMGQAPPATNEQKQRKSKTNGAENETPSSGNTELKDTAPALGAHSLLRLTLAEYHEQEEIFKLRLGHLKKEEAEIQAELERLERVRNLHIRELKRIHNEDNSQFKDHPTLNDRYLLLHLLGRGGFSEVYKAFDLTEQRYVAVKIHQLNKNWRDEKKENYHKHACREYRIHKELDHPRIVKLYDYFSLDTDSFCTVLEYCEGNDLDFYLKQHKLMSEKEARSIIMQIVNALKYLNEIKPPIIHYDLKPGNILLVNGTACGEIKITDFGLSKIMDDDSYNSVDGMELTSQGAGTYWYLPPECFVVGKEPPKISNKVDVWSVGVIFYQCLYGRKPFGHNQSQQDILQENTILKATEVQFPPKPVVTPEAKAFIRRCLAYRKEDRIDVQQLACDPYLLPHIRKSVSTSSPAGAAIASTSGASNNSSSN

Cc1cn(CCN2CCN(c3ccccc3-c3cc(C#N)cc(C(=O)NCCCN4CCCC4)c3)CC2)c2ccccc12 [LLY-507, 3-cyano-5-{2-[4-[2-(3-methylindol-1-yl)ethyl]piperazin-1-yl]-phenyl}-N-[(3-pyrrolidin-1-yl)propyl]benzamide]
2.6%: % Effect, Stimulation [22]
> 20 µM: IC50 [1] | IC50 [2] | IC50 [3] | IC50 [4] | IC50 [7] | IC50 [8] | IC50 [9] | IC50 [10] | IC50 [12] | IC50 [13] | IC50 [14] | IC50 [15] | IC50 [17] | IC50 [18] | IC50 [19] | IC50 [20] | IC50 [21] | IC50 [23] | IC50 [25]
not significantly affected: total levels of p53 ([16]; KYSE-150 FLAG-SMYD2)
-6.8%: % Effect, Stimulation [6]
≤ 18 h: time by which significant reductions in p53 Lys370 methylation occurred ([16]; 5 μM LLY-507, SMYD2-overexpressing KYSE-150)
> 10 µM: IC50 [11] | IC50 [24]
0.1%: % Effect, Stimulation [5]
25%: reduction of Lys370 methylation on nuclear p53 ([16]; nuclear fraction, KYSE-150 FLAG-SMYD2)
50%: reduction of Lys370 methylation on cytoplasmic p53 ([16]; cytoplasmic fraction, KYSE-150 FLAG-SMYD2)
